Patent publication US12065445B2, “CDK2 inhibitors and methods of using the same” (Cedilla Therapeutics, Inc., priority 2021, dated 2024)

System: Kuramochi cells
Assay: BrdU Cell Proliferation Assay
Type: cell-based
Conditions: read-out: BrdU - KURAMOCHI.1: IC50
Outline: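 Kuramochi cells were seeded at 2,000 cells/well, adhered overnight, then treated with a 10-point, 3-fold compound dilution series for 4 days. Proliferation was measured by a 1-hour BrdU pulse, anti-BrdU peroxidase colorimetric ELISA and 450 nm absorbance. Values were background-subtracted and normalized to DMSO wells.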

Compound | IC50
CNC(=O)[C@@H](NC(=O)[C@@H]1CN(C(=O)c2cnn(Cc3ccccc3)c2)CC12CN(C(=O)[C@H]1CC1(C)C)C2)C(C)(C)S(=O)(=O)Cc1ccccc1 [I-199, (S)-6-(1-benzyl-1H-pyrazole-4-carbonyl)-N—((R)-3-(benzylsulfonyl)-3-methyl-1-(methylamino)-1-oxobutan-2-yl)-2-((S)-2,2-dimethylcyclopropane-1-carbonyl)-2,6-diazaspiro[3.4]octane-8-carboxamide] | > 10 µM
C[C@@H](OCC1CCCCC1)[C@H](NC(=O)[C@@H]1CN(C(=O)c2cnn(Cc3ccccc3)c2)CC12CN(C(=O)[C@H]1CC1(C)C)C2)C(N)=O [I-200] | 0.5 to 5 µM
CC1(C)C[C@@H]1C(=O)N1CC2(CN(C(=O)c3cnn(Cc4ccccc4)c3)C[C@@H]2C(=O)N[C@@H]2CC[C@@H]2O)C1 [I-201A] | > 10 µM
CC1(C)C[C@@H]1C(=O)N1CC2(CN(C(=O)c3cnn(Cc4ccccc4)c3)C[C@H]2C(=O)N[C@@H]2CC[C@@H]2O)C1 [I-201B] | > 10 µM
CNC(=O)[C@@H](NC(=O)[C@@H]1CN(C(=O)c2cnn(Cc3ccccc3)c2)CC12CN(C(=O)[C@H]1CC1(C)C)C2)[C@@H](C)OCC1CCC(F)(F)CC1 [I-202] | 0.5 to 5 µM
CNC(=O)[C@@H](NC(=O)[C@@H]1CN(C(=O)c2cnn(Cc3ccccc3)c2)CC12CN(C(=O)[C@H]1CC1(C)C)C2)[C@@H](C)OCC(F)(F)F [I-204] | > 10 µM
CNC(=O)[C@@H](NC(=O)[C@@H]1CN(C(=O)c2cnn(Cc3ccccc3)c2)CC12CN(C(=O)[C@H]1CC1(C)C)C2)[C@@H](C)OCC1(C(F)(F)F)CC1 [I-205A] | > 10 µM
CNC(=O)[C@@H](NC(=O)[C@H]1CN(C(=O)c2cnn(Cc3ccccc3)c2)CC12CN(C(=O)[C@H]1CC1(C)C)C2)[C@@H](C)OCC1(C(F)(F)F)CC1 [I-205B] | > 10 µM
CC1(C)C[C@@H]1C(=O)N1CC2(CN(C(=O)c3cnn(Cc4ccccc4)c3)C[C@H]2C(=O)N[C@H]2CCN(c3ccccc3)C2)C1 [I-206] | > 10 µM
CNC(=O)[C@@H](NC(=O)[C@H]1CN(C(=O)c2sc(Cl)nc2C)CC12CN(C(=O)[C@H]1CC1(C)C)C2)[C@@H](C)OCC1CCCCC1 [I-208B] | > 10 µM
COC(=O)[C@H](CO)NC(=O)[C@@H]1CN(C(=O)c2cnn(Cc3ccccc3)c2)CC12CN(C(=O)[C@H]1CC1(C)C)C2 [I-209A] | > 10 µM
COC(=O)[C@H](CO)NC(=O)[C@H]1CN(C(=O)c2cnn(Cc3ccccc3)c2)CC12CN(C(=O)[C@H]1CC1(C)C)C2 [I-209B] | > 10 µM
CC1(C)C[C@@H]1C(=O)N1CC2(CN(C(=O)c3cnn(Cc4ccccc4)c3)C[C@H]2C(=O)N2CCO[C@@H](Cc3ccccc3)C2)C1 [I-210] | > 10 µM
CC1(C)C[C@@H]1C(=O)N1CC2(CN(C(=O)c3cnn(Cc4ccccc4)c3)C[C@H]2C(=O)N[C@@H]2CCCN(CC3CCCCC3)C2)C1 [I-212] | > 10 µM
CC1(C)C[C@@H]1C(=O)N1CC2(CN(C(=O)c3cnn(Cc4ccccc4)c3)C[C@H]2C(=O)N2CCC(OCc3ccccc3)CC2)C1 [I-214] | > 10 µM
CC1(C)C[C@@H]1C(=O)N1CC2(CN(C(=O)c3cnn(Cc4ccccc4)c3)C[C@H]2C(=O)N[C@@H]2CCCN(C(=O)C3CCCCC3)C2)C1 [I-215] | > 10 µM
C[C@@H](OCC1CCCCC1)[C@H](NC(=O)[C@@H]1CN(C(=O)c2ccn[nH]2)CC12CN(C(=O)[C@H]1CC1(C)C)C2)C(=O)N1CCCCC1 [I-216] | > 10 µM
C[C@@H](OCC1CCCCC1)[C@H](NC(=O)[C@@H]1CN(C(=O)c2ccns2)CC12CN(C(=O)[C@H]1CC1(C)C)C2)C(=O)N1CCCCC1 [I-217] | ≤ 0.5 µM
C[C@@H](OCC1CCCCC1)[C@H](NC(=O)[C@@H]1CN(C(=O)c2cnn(Cc3ccccc3)c2)CC12CN(C(=O)[C@H]1CC1(C)C)C2)C(=O)N1CCC[C@@H](N)C1 [I-218] | 5 to 10 µM
C[C@@H](OCC1CCCCC1)[C@H](NC(=O)[C@@H]1CN(C(=O)c2cnn(Cc3ccccc3)c2)CC12CN(C(=O)[C@H]1CC1(C)C)C2)C(=O)N1CCC(CN)CC1 [I-219] | 0.5 to 5 µM
C[C@@H](OCC1CCCCC1)[C@H](NC(=O)[C@@H]1CN(C(=O)c2cnn(Cc3ccccc3)c2)CC12CN(C(=O)[C@H]1CC1(C)C)C2)C(=O)N1CCC[C@H]1CN [I-220] | > 10 µM
CC1(C)C[C@@H]1C(=O)N1CC2(CN(C(=O)c3cnn(Cc4ccccc4)c3)C[C@H]2C(=O)NCC2CCCCO2)C1 (some centres unmarked) [I-221] | > 10 µM
CC1(C)C[C@@H]1C(=O)N1CC2(CN(C(=O)c3cnn(Cc4ccccc4)c3)C[C@H]2C(=O)NC2CCNC(=O)C2)C1 (some centres unmarked) [I-223] | > 10 µM
CNC(=O)[C@@H](NC(=O)[C@@H]1CN(C(=O)c2scnc2C2CCCC2)CC12CN(C(=O)[C@H]1CC1(C)C)C2)[C@@H](C)OCC1CCCCC1 [I-224B] | > 10 µM
CNC(=O)[C@H](CSCc1ccccc1)NC(=O)[C@@H]1CN(C(=O)c2cnn(Cc3ccccc3)c2)CC12CN(C(=O)[C@H]1CC1(C)C)C2 [I-225] | > 10 µM
CNC(=O)[C@H](CS(=O)(=O)Cc1ccccc1)NC(=O)[C@@H]1CN(C(=O)c2cnn(Cc3ccccc3)c2)CC12CN(C(=O)[C@H]1CC1(C)C)C2 [I-226] | > 10 µM
CNC(=O)[C@@H](NC(=O)[C@H]1CN(C(=O)c2sc(C(C)C)nc2C)CC12CN(C(=O)[C@H]1CC1(C)C)C2)[C@@H](C)OCC1CCCCC1 [I-227B] | > 10 µM

Compound | IC50
C[C@@H](OCC1CCC(F)(F)CC1)[C@H](NC(=O)[C@H]1CN(C(=O)c2cn[nH]c2)CC12CN(C(=O)[C@H]1CC1(C)C)C2)C(=O)N1CCC(F)(F)CC1 [I-228B] | > 10 µM
CNC(=O)[C@@H](NC(=O)[C@H]1CN(C(=O)c2cnc(C(C)(C)C)s2)CC12CN(C(=O)[C@H]1CC1(C)C)C2)[C@@H](C)OCC1CCCCC1 [I-229B] | > 10 µM
CC1(C)C[C@@H]1C(=O)N1CC2(CN(C(=O)c3cnn(Cc4ccccc4)c3)C[C@H]2C(=O)NCc2nc3ccccc3o2)C1 [I-230] | > 10 µM
CNC(=O)[C@@H](NC(=O)[C@H]1CN(C(=O)c2scnc2C(C)(C)C)CC12CN(C(=O)[C@H]1CC1(C)C)C2)[C@@H](C)OCC1CCCCC1 [I-231B] | > 10 µM
CNC(=O)[C@@H](NC(=O)[C@H]1CN(C(=O)c2sc(Cl)nc2Cl)CC12CN(C(=O)[C@H]1CC1(C)C)C2)[C@@H](C)OCC1CCCCC1 [I-232B] | > 10 µM
CC(C)O[C@H]1C[C@H](NC(=O)[C@@H]2CN(C(=O)c3cnn(Cc4ccccc4)c3)CC23CN(C(=O)[C@H]2CC2(C)C)C3)C1 [I-233] | > 10 µM
CC1(C)C[C@@H]1C(=O)N1CC2(CN(C(=O)c3cnn(Cc4ccccc4)c3)C[C@H]2C(=O)N2CC[C@@H](OCC3CCCCC3)C2)C1 [I-235] | > 10 µM
CC1(C)C[C@@H]1C(=O)N1CC2(CN(C(=O)c3cnn(Cc4ccccc4)c3)C[C@H]2C(=O)N2CCC[C@H](OCC3CCCCC3)C2)C1 [I-236] | > 10 µM
CC1(C)C[C@@H]1C(=O)N1CC2(CN(C(=O)c3cnn(Cc4ccccc4)c3)C[C@H]2C(=O)N2CCN(CC3CCCCC3)CC2)C1 [I-237] | > 10 µM
C[C@@H](OCC1CCCCC1)[C@H](NC(=O)[C@@H]1CN(C(=O)c2cnn(Cc3ccccc3)c2)CC12CN(C(=O)[C@H]1CC1(C)C)C2)C(=O)N1CCC[C@@H]1CN [I-238] | > 10 µM
C[C@@H](OCC1CCCCC1)[C@H](NC(=O)[C@@H]1CN(C(=O)c2cnn(Cc3ccccc3)c2)CC12CN(C(=O)[C@H]1CC1(C)C)C2)C(=O)N1CC(CN)C1 [I-239] | > 10 µM
C[C@@H](OCC1CCCCC1)[C@H](NC(=O)[C@@H]1CN(C(=O)c2cnn(Cc3ccccc3)c2)CC12CN(C(=O)[C@H]1CC1(C)C)C2)C(=O)N1CC2(CNC2)C1 [I-240] | > 10 µM
Cc1n[nH]c(C(=O)N2C[C@@H](C(=O)N[C@H](C(=O)N3CCCCC3)[C@@H](C)OCC3CCCCC3)C3(C2)CN(C(=O)[C@H]2CC2(C)C)C3)n1 [I-241] | > 10 µM
C[C@@H](OCC1CCCCC1)[C@H](NC(=O)C1CN(C(=O)C2CCC(=O)N(C)C2)CC12CN(C(=O)[C@H]1CC1(C)C)C2)C(=O)N1CCCCC1 (some centres unmarked) [I-242] | > 10 µM
CC1(C)C[C@@H]1C(=O)N1CC2(CN(C(=O)c3cnn(Cc4ccccc4)c3)C[C@H]2C(=O)N[C@H]2CCN(C3CC3)C2=O)C1 [I-243] | > 10 µM
CNC(=O)[C@@H](NC(=O)[C@@H]1CN(C(=O)c2cnn(Cc3ccccc3)c2)CC12CN(C(=O)[C@H]1CC1(C)C)C2)[C@@H](C)OCc1ccncc1 [I-244] | > 10 µM
CC1(C)C[C@@H]1C(=O)N1CC2(CN(C(=O)c3cnn(Cc4ccccc4)c3)CC2C(=O)NC2CNCCOC2)C1 (some centres unmarked) [I-245] | > 10 µM
CNC(=O)[C@@H](NC(=O)[C@@H]1CN(C(=O)c2cnn(Cc3ccccc3)c2)CC12CN(C(=O)[C@H]1CC1(C)C)C2)[C@@H](C)OCc1cccnc1 [I-247] | > 10 µM
CO[C@@H]1CC[C@H](NC(=O)[C@@H]2CN(C(=O)c3cnn(Cc4ccccc4)c3)CC23CN(C(=O)[C@H]2CC2(C)C)C3)C1 [I-248] | > 10 µM
COCC1(NC(=O)[C@H]2CN(C(=O)c3cnn(Cc4ccccc4)c3)CC23CN(C(=O)[C@H]2CC2(C)C)C3)CC1 [I-250] | > 10 µM
CNC(=O)[C@@H](NC(=O)[C@@H]1CN(C(=O)c2cnn(Cc3ccccc3)c2)CC12CN(C(=O)[C@H]1CC1(C)C)C2)[C@@H](C)OCc1ccccc1O [I-251] | > 10 µM
CC1(C)C[C@@H]1C(=O)N1CC2(CN(C(=O)c3cnn(Cc4ccccc4)c3)C[C@H]2C(=O)N2CCC[C@@H](OCC3CCCCC3)C2)C1 [I-254] | > 10 µM
CC1(C)C[C@@H]1C(=O)N1CC2(CN(C(=O)c3cnn(Cc4ccccc4)c3)C[C@H]2C(=O)N2CCO[C@H](Cc3ccccc3)C2)C1 [I-255] | > 10 µM
CC1(C)C[C@@H]1C(=O)N1CC2(CN(C(=O)c3cnn(Cc4ccccc4)c3)C[C@H]2C(=O)N2CC[C@H](OCC3CCCCC3)C2)C1 [I-256] | 5 to 10 µM
CO[C@H](C)[C@H](NC(=O)[C@@H]1CN(C(=O)c2cnn(C)c2)CC12CN(C(=O)[C@H]1CC1(C)C)C2)C(=O)N1CCCCC1 [I-303] | > 10 µM
C[C@@H](O)[C@H](NC(=O)[C@@H]1CN(C(=O)c2cnn(C)c2)CC12CN(C(=O)[C@H]1CC1(C)C)C2)C(=O)N1CCCCC1 [I-305] | 0.5 to 5 µM
